Molecular target: T1, GO (Homo sapiens, UniProt Q9UJM8)
T1 sequence (Q9UJM8 1-370): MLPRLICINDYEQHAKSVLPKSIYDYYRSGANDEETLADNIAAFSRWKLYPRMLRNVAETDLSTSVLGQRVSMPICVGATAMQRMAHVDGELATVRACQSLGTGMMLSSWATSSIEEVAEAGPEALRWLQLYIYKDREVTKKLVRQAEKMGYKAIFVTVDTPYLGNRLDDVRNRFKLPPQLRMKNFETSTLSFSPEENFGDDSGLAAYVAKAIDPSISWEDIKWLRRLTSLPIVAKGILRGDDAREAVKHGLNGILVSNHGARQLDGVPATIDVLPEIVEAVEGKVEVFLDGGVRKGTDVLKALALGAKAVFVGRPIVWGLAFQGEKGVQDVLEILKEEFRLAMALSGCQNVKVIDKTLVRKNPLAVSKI
Experiment: GO Enzymatic Assay (Assay 1)
Type: biochemical
Set-up: purchased Novus Biologicals NBP1-72412
Conditions: Table 4; class symbols without asterisk, GO Enzymatic Assay (Assay 1); read-out: Range
Procedure: Assay 1: GO Enzymatic Assay
GO was incubated with its substrate, glycolate, in 50 mM potassium phosphate buffer, pH 7. […] The enzyme was optimized and the kinetics was determined.
Compound inhibition was determined by adding various concentrations of inhibitors in the GO enzyme assay. The IC50 value for each measured compound was generated from sigmoidal dose-response (variable slope) curves with GraphPad Prism software (GraphPad Software, Inc., San Diego, Calif.) using the percent inhibition of GO activity relative to DMSO control.

SMILES	IC50
O=C(O)c1[nH]nnc1O[C@H]1CC[C@H](c2ccc(N3CCCCC3)c(Cl)c2)CC1 [Compound 441, 4-(((trans)-4-(3-chloro-4-(piperidin-1-yl)phenyl)cyclohexyl)oxy)-1H-1,2,3-triazole-5-carboxylic acid 2,2,2-trifluoroacetate]	< 100 nM
O=C(O)c1[nH]nnc1O[C@H]1CC[C@H](c2ccc(-n3cccn3)cc2)CC1 [Compound 418, 4-(((trans)-4-(4-(1H-pyrazol-1-yl)phenyl)cyclohexyl)oxy)-1H-1,2,3-triazole-5-carboxylic acid]	< 100 nM
O=C(O)c1[nH]nnc1S[C@H]1CC[C@H](c2cc(Cl)ccc2OC(F)(F)F)CC1 [Compound 430, 4-(((trans)-4-(5-chloro-2-(trifluoromethoxy)phenyl)cyclohexyl)thio)-1H-1,2,3-triazole-5-carboxylic acid]	< 100 nM
O=C(O)c1[nH]nnc1CS[C@H]1CC[C@@H](c2cc(Cl)cc(Cl)c2)CC1 [Compound 377, 4-((((cis)-4-(3,5-dichlorophenyl)cyclohexyl)thio)methyl)-1H-1,2,3-triazole-5-carboxylic acid]	< 100 nM
O=C(O)c1[nH]nnc1O[C@H]1CC[C@H](c2ccc(-c3nnco3)cc2)CC1 [Compound 433, 4-(((trans)-4-(4-(1,3,4-oxadiazol-2-yl)phenyl)cyclohexyl)oxy)-1H-1,2,3-triazole-5-carboxylic acid]	< 100 nM
O=C(O)c1[nH]nnc1Oc1ccc(Cl)c(OC2CCCC2)c1 [Compound 381, 4-(4-chloro-3-(cyclopentyloxy)phenoxy)-1H-1,2,3-triazole-5-carboxylic acid 2,2,2-trifluoroacetate]	< 100 nM
O=C(O)c1[nH]nnc1Sc1ccc(-c2ccc(Cl)cc2)c(OCC2CCCC2)c1 [Compound 398, 4-((4′-chloro-2-(cyclopentylmethoxy)-[1,1′-biphenyl]-4-yl)thio)-1H-1,2,3-triazole-5-carboxylic acid 2,2,2-trifluoroacetate]	< 100 nM
N#Cc1ccc([C@H]2C[C@H](Oc3nn[nH]c3C(=O)O)C2)cc1 [Compound 404, 4-((trans)-3-(4-cyanophenyl)cyclobutoxy)-1H-1,2,3-triazole-5-carboxylic acid 2,2,2-trifluoroacetate]	< 100 nM
CS(=O)(=O)c1ccc([C@H]2CC[C@H](Oc3nn[nH]c3C(=O)O)CC2)cc1 [Compound 438, 4-(((trans)-4-(4-(methylsulfonyl)phenyl)cyclohexyl)oxy)-1H-1,2,3-triazole-5-carboxylic acid]	< 100 nM
N#Cc1ccc(-c2ccc(Oc3nn[nH]c3C(=O)O)cc2Cl)cc1 [Compound 394, 4-((2-chloro-4′-cyano-[1,1′-biphenyl]-4-yl)oxy)-1H-1,2,3-triazole-5-carboxylic acid]	< 100 nM
O=C(O)c1[nH]nnc1O[C@H]1CC[C@H](c2ccc(N3CCCCC3)cc2)CC1 [Compound 436, 4-(((trans)-4-(4-(piperidin-1-yl)phenyl)cyclohexyl)oxy)-1H-1,2,3-triazole-5-carboxylic acid 2,2,2-trifluoroacetate]	< 100 nM
O=C(O)c1[nH]nnc1O[C@H]1CC[C@H](c2ccc(-n3cnnc3)cc2)CC1 [Compound 403, 4-(((trans)-4-(4-(4H-1,2,4-triazol-4-yl)phenyl)cyclohexyl)oxy)-1H-1,2,3-triazole-5-carboxylic acid]	< 100 nM
O=C(O)c1[nH]nnc1O[C@H]1CC[C@H](c2ccc(N3CCCC3=O)cc2)CC1 [Compound 412, 4-(((trans)-4-(4-(2-oxopyrrolidin-1-yl)phenyl)cyclohexyl)oxy)-1H-1,2,3-triazole-5-carboxylic acid]	< 100 nM
O=C(O)c1[nH]nnc1O[C@H]1CC[C@H](c2ccc(C(=O)N3CCCCC3)cc2)CC1 [Compound 417, 4-(((trans)-4-(4-(piperidine-1-carbonyl)phenyl)cyclohexyl)oxy)-1H-1,2,3-triazole-5-carboxylic acid 2,2,2-trifluoroacetate]	< 100 nM
O=C(O)c1[nH]nnc1O[C@H]1CC[C@@H](c2cc(OC(F)(F)F)ccc2Cl)CC1 [Compound 396, 4-(((cis)-4-(2-chloro-5-(trifluoromethoxy)phenyl)cyclohexyl)oxy)-1H-1,2,3-triazole-5-carboxylic acid]	< 100 nM
O=C(O)c1[nH]nnc1Oc1ccc(C2CCN(C3CCCCC3)CC2)cc1 [Compound 388, 4-(4-(1-cyclohexylpiperidin-4-yl)phenoxy)-1H-1,2,3-triazole-5-carboxylic acid 2,2,2-trifluoroacetate]	1000 to 10000 nM
O=C(O)c1[nH]nnc1O[C@H]1CC[C@H](c2ccc(-c3nncs3)cc2)CC1 [Compound 431, 4-(((trans)-4-(4-(1,3,4-thiadiazol-2-yl)phenyl)cyclohexyl)oxy)-1H-1,2,3-triazole-5-carboxylic acid 2,2,2-trifluoroacetate]	< 100 nM
O=C(O)c1[nH]nnc1S[C@H]1C[C@H](c2ccc(N3CCCCC3)cc2)C1 [Compound 434, 4-(((trans)-3-(4-(piperidin-1-yl)phenyl)cyclobutyl)thio)-1H-1,2,3-triazole-5-carboxylic acid 2,2,2-trifluoroacetate]	< 100 nM
O=C(O)c1[nH]nnc1O[C@H]1CC[C@H](c2ccc(-n3cncn3)cc2)CC1 [Compound 405, 4-(((trans)-4-(4-(1H-1,2,4-triazol-1-yl)phenyl)cyclohexyl)oxy)-1H-1,2,3-triazole-5-carboxylic acid]	< 100 nM
O=C(O)c1[nH]nnc1O[C@H]1CC[C@H](c2ccc(C(=O)N3CCOCC3)cc2)CC1 [Compound 416, 4-(((trans)-4-(4-(morpholine-4-carbonyl)phenyl)cyclohexyl)oxy)-1H-1,2,3-triazole-5-carboxylic acid 2,2,2-trifluoroacetate]	< 100 nM
O=C(O)c1[nH]nnc1S[C@H]1CC[C@H](c2ccc(N3CCCCC3)cc2)CC1 [Compound 432, 4-(((trans)-4-(4-(piperidin-1-yl)phenyl)cyclohexyl)thio)-1H-1,2,3-triazole-5-carboxylic acid 2,2,2-trifluoroacetate]	< 100 nM
O=C(O)c1[nH]nnc1O[C@H]1CC[C@H](c2ccc(OC(F)(F)F)c(Cl)c2)CC1 [Compound 419, 4-(((trans)-4-(3-chloro-4-(trifluoromethoxy)phenyl)cyclohexyl)oxy)-1H-1,2,3-triazole-5-carboxylic acid]	< 100 nM
O=C(O)c1[nH]nnc1Sc1cccc(OC2CCCCC2)c1 [Compound 382, 4-((3-(cyclohexyloxy)phenyl)thio)-1H-1,2,3-triazole-5-carboxylic acid 2,2,2-trifluoroacetate]	100 to 1000 nM
NC(=O)c1ccc(-c2ccc(Oc3nn[nH]c3C(=O)O)cc2)cc1 [Compound 397, 4-((4′-carbamoyl-[1,1′-biphenyl]-4-yl)oxy)-1H-1,2,3-triazole-5-carboxylic acid]	< 100 nM
O=C(O)c1[nH]nnc1CSC1CCN(c2cc(Cl)ccc2Cl)CC1 [Compound 383, 4-(((1-(2,5-dichlorophenyl)piperidin-4-yl)thio)methyl)-1H-1,2,3-triazole-5-carboxylic acid 2,2,2-trifluoroacetate]	< 100 nM

— US20230088214A1, “GLYCOLATE OXIDASE INHIBITORS FOR THE TREATMENT OF DISEASE” (BIOMARIN PHARMACEUTICAL INC., priority 2019, published 2023)
